Assay results as given in ChEMBL document CHEMBL1122706, “2,5-Anhydro-1-deoxy-1-phosphono-D-altritol, an isosteric analogue of alpha-D-ribofuranose 1-phosphate” (J Med Chem, 1984).
Activity calls are given as the source filed them. The calls are words filed in the database; no cut-off is given here.

What was measured:
[1] = molecular target: T1, Purine nucleoside phosphorylase (Homo sapiens) (UniProt P00491); assay: Inhibitory activity against purine nucleoside phosphorylase at a concentration of 6 mM; NA = No activity
T1 sequence (whole entry): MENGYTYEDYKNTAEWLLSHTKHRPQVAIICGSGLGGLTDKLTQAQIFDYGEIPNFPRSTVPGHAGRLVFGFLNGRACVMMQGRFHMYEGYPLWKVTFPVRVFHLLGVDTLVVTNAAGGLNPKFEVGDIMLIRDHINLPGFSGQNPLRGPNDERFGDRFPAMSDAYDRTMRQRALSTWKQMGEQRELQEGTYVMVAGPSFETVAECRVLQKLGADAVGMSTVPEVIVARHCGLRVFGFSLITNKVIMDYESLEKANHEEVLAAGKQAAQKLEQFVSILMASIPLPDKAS

[2] = Inhibitory activity against uridine phosphorylase at a concentration of 4 mM by using 5-fluorouracil and ribose 1-phosphate as substrates; NI = No inhibition

Structure (SMILES)	inhibition [1]	inhibition [2]
O=P(O)(O)C[C@@H]1O[C@H](CO)[C@@H](O)[C@H]1O	inactive	–
O=P(O)(O)C[C@H]1O[C@H](CO)[C@@H](O)[C@H]1O	inactive	inactive
